Assay results published in article PMC13289212, “HIVIL: A human in vitro inflammatory liver model recapitulates immune-associated drug effects with high predictivity” (NAM journal, 2025).
pIC50: −log10 of the molar value.

Assays:
[1] = Cell viability of iHeps mono-culture; assay type: cell-based; conditions: human
Description: Human iPSC cell line iPS (IMR90)-4 was purchased from WiCell Research Institute (Madison, WI), and maintained with a feeder-free method according to the instruction from […] Technologies (Vancouver, BC, Canada). The protocol of differentiation towards iKCs and iHeps as described previously with slight modification ([Tasnim et al., 2019]; [Cai et al., 2012]), respectively. The re-optimized protocol to generate iKCs is discussed in Results section. More details are provided in Supplementary Methods. After differentiation, iKCs was harvested using 0.05 % trypsin-EDTA (Gibco, Waltham, Massachusetts, USA), while iHeps were dissociated with TrypLE^TM (Gibco). iHep suspension was further filtered through a 40 µm cell strainer to remove extracellular matrix clumps. Cell suspension was centrifuged at 1000 rpm for 5 min. For co-culture set up, tissue culture plates were coated with Rat tail collagen I (Gibco) diluted 100-fold in 0.02 N acetic acid, and incubated at 37 °C for 1 h and washed 3 times with PBS. According to the protocol optimized by [Tasnim et al. (2019)], iKCs was firstly seeded at a density of 14,000 per well on 96-well plate with Advanced DMEM (plus supplements) containing 5 % FBS. On the following day, iHeps were added at a density of 35,000 per well in Williams’ Medium E (plus supplements) (iHep: iKCs ratio = 2.5: 1). […]

IL-6 [2] = assay: IL-6 ELISA in HIVIL (iKCs co-cultured with iHeps, LPS, 48 hr); assay type: cell-based, human; conditions: HIVIL
TNFα = conditions: ref Shaw et al. 2010; Zou et al. 2009; Bekker et al. 2012; Gandhi et al. 2013; Heidari et al. 2019; cited from earlier work
IL-6 [3] = assay: IL-6 ELISA in HIVIL (iKCs co-cultured with iHeps, LPS, 48 hr); assay type: cell-based, human; conditions: HIVIL co-treated with TVX and LPS

N[C@@H]1[C@H]2CN(c3nc4c(cc3F)c(=O)c(C(=O)O)cn4-c3ccc(F)cc3F)C[C@@H]12 [TVX, Trovafloxacin]
viability [1]: 53.7%
effect on cytokine production (IL-6 [2]; high doses (>25 μM)): inhibitory effects
IL-6 induction (IL-6 [2]; low dose 3.125 μM and 6.25 μM): 1.5 fold
pIC50 (IL-6 [2]; Homo sapiens, LPS, 48 hr): 4.79
Reported in-vivo (murine) responses: TNFα (TNFα): TNFα↑
IL-6 decline after 24 h (IL-6 [3]): 57.3%
